Results from US20240116985A1, “STAPLED PEPTIDES AND METHODS THEREOF” (priority 2020, published 2024).

Test: CHI Log D procedure
Format: physicochemical
Conditions: pH 7.4

| Compound | CHI Log D |
| --- | --- |
| CC(=O)N[C@@H](Cc1ccccc1)C(=O)N[C@@H](CC(=O)O)C(=O)N[C@@H](C)C(=O)N[C@]1(C)CCCCCCC=CCOC(=O)N2CC[C@@](C(=O)N[C@@H](Cc3ccccc3)C(=O)N[C@@H](Cc3c[nH]c4ccccc34)C(=O)N[C@@H](CCC(N)=O)C(N)=O)(C2)NC(=O)[C@H](C(C)C)NC(=O)[C@H](Cc2ccccc2)NC(=O)[C@H](C)NC(=O)[C@H](C)NC(=O)[C@H](Cc2ccccc2)NC(=O)[C@H](CC(=O)O)NC1=O [I-100, Ac-Phe-Asp-Ala-R8-Asp-Phe-Ala-Ala-Phe-Val-PyrS-Phe-Trp-Gln-NH2] | 1.993 |
| CC(=O)N[C@@H](Cc1ccccc1)C(=O)N[C@@H](CC(=O)O)C(=O)N[C@@H](C)C(=O)N[C@]1(C)CCCCCCC=CCOC(=O)N2CC[C@@](C(=O)N[C@@H](Cc3ccccc3)C(=O)N[C@@H](Cc3c[nH]c4ccccc34)C(=O)N[C@@H](CCC(N)=O)C(N)=O)(C2)NC(=O)[C@H](C(C)C)NC(=O)[C@H](Cc2ccccc2)NC(=O)[C@H](C)NC(=O)[C@H](C)NC(=O)[C@H](Cc2ccc3ccccc3c2)NC(=O)[C@H](CC(=O)O)NC1=O [I-115, Ac-Phe-Asp-Ala-R8-Asp-2NapA-Ala-Ala-Phe-Val-PyrS-Phe-Trp-Gln-NH2] | 2.145 |
| CC(=O)N[C@@H](Cc1ccccc1)C(=O)N[C@@H](CC(=O)O)C(=O)N[C@@H](C)C(=O)N[C@]1(C)CCCCCCC=CCOC(=O)N2CC[C@@](C(=O)N[C@@H](Cc3ccccc3)C(=O)N[C@@H](Cc3c[nH]c4ccccc34)C(=O)N[C@@H](CCC(N)=O)C(N)=O)(C2)NC(=O)[C@H](C(C)C)NC(=O)[C@H](CCc2ccccc2)NC(=O)[C@H](C)NC(=O)[C@H](C)NC(=O)[C@H](CC(=O)O)NC(=O)[C@H](CC(=O)O)NC1=O [I-118, Ac-Phe-Asp-Ala-R8-Asp-Asp-Ala-Ala-hPhe-Val-PyrS-Phe-Trp-Gln-NH2] | 1.545 |
| CC(=O)N[C@@H](Cc1ccccc1)C(=O)N[C@@H](CC(=O)O)C(=O)N[C@@H](C)C(=O)N[C@]1(C)CCCCCCC=CCOC(=O)N2CC[C@@](C(=O)N[C@@H](Cc3ccccc3)C(=O)N[C@@H](Cc3c[nH]c4ccccc34)C(=O)N[C@@H](CCC(N)=O)C(N)=O)(C2)NC(=O)[C@H](C(C)C)NC(=O)[C@H](CCc2ccc(O)cc2)NC(=O)[C@H](C)NC(=O)[C@H](C)NC(=O)[C@H](CC(=O)O)NC(=O)[C@H](CC(=O)O)NC1=O [I-120, Ac-Phe-Asp-Ala-R8-Asp-Asp-Ala-Ala-hTyr-Val-PyrS-Phe-Trp-Gln-NH2] | 1.243 |
| CC(=O)N1CCC[C@]12CC=CCCCC1(CCCC=CCCCCCC[C@@](C)(C(=O)N[C@@H](Cc3ccccc3)C(=O)N[C@@](C)(Cc3c[nH]c4ccccc34)C(=O)N[C@@H](CCC(N)=O)C(N)=O)NC(=O)[C@H](C(C)C)NC(=O)[C@H](Cc3ccccc3)NC(=O)[C@H](C)NC(=O)[C@H](C)NC(=O)[C@H](CCC(=O)O)NC(=O)[C@H](CC(=O)O)NC1=O)NC(=O)[C@H](C)NC(=O)[C@H](CC(=O)O)NC2=O (stereo partly drawn) [I-137, Ac-PL3-Asp-Ala-B5-Asp-Glu-Ala-Ala-Phe-Val-S8-Phe-aMeW-Gln-NH2] | 2.174 |
| CC[C@H](C)[C@H](NC(=O)[C@H](CC(=O)O)NC(C)=O)C(=O)N[C@]1(C)CCN(C)C(=O)OCC=CCCCCC[C@@](C)(C(=O)N[C@@H](Cc2ccccc2)C(=O)N[C@@H](Cc2c[nH]c3ccccc23)C(=O)N[C@@H](Cc2c[nH]cn2)C(N)=O)NC(=O)[C@H](CCC(N)=O)NC(=O)[C@H](Cc2ccccc2)NC(=O)[C@H](C)NC(=O)[C@H](C)NC(=O)[C@H](CC(=O)O)NC(=O)[C@H](CC(=O)O)NC1=O [I-149, Ac-Asp-Ile-RdN-Asp-Asp-Ala-Ala-Phe-Gln-S7-Phe-Trp-His-NH2] | 1.27 |
| CC[C@H](C)[C@H](NC(=O)[C@H](CC(=O)O)NC(=O)[C@H](C)NC(C)=O)C(=O)N[C@]1(C)CCN(C)C(=O)OCC=CCCCCC[C@@](C)(C(=O)N[C@@H](Cc2ccccc2)C(=O)N[C@@H](Cc2c[nH]c3ccccc23)C(=O)N[C@@H](C)C(N)=O)NC(=O)[C@H](C)NC(=O)[C@H](Cc2ccccc2)NC(=O)[C@H](C)NC(=O)[C@H](C)NC(=O)[C@H](CCC(=O)O)NC(=O)[C@H](CC(=O)O)NC1=O [I-154, Ac-Ala-Asp-Ile-RdN-Asp-Glu-Ala-Ala-Phe-Ala-S7-Phe-Trp-Ala-NH2] | 1.426 |
| CC(=O)NC(C)(C)C(=O)N[C@@H](CC(=O)O)C(=O)N[C@@H](C)C(=O)N[C@]1(C)CCCCCCC=CCOC(=O)N2CC[C@@](C(=O)N[C@@H](Cc3ccccc3)C(=O)N[C@@H](Cc3c[nH]c4ccccc34)C(=O)NC(C)(C)C(N)=O)(C2)NC(=O)[C@H](C(C)C)NC(=O)[C@H](Cc2ccccc2)NC(=O)[C@H](C)NC(=O)[C@H](C)NC(=O)[C@H](CCC(=O)O)NC(=O)[C@H](CC(=O)O)NC1=O [I-159, Ac-Aib-Asp-Ala-R8-Asp-Glu-Ala-Ala-Phe-Val-PyrS-Phe-Trp-Aib-NH2] | 1.452 |

Continued, values first:

| CHI Log D | Compound |
| --- | --- |
| 1.199 | CC(=O)N[C@@H](Cc1ccccc1)C(=O)N[C@@H](CC(=O)O)C(=O)N[C@@H](C)C(=O)N[C@]1(C)CCCCCCC=CCOC(=O)N2CC[C@@](C(=O)N[C@@H](Cc3ccccc3)C(=O)N[C@@H](Cc3c[nH]c4ccccc34)C(=O)N[C@@H](CCC(N)=O)C(N)=O)(C2)NC(=O)[C@H](C(C)C)NC(=O)[C@H](Cc2ccc(C(N)=O)cc2)NC(=O)[C@H](C)NC(=O)[C@H](C)NC(=O)[C@H](CC(=O)O)NC(=O)[C@H](CC(=O)O)NC1=O [I-92, Ac-Phe-Asp-Ala-R8-Asp-Asp-Ala-Ala-4CBMF-Val-PyrS-Phe-Trp-Gln-NH2] |
| 0.825 | CC(=O)N[C@@H](Cc1ccccc1)C(=O)N[C@@H](CC(=O)O)C(=O)N[C@@H](C)C(=O)N[C@]1(C)CCCCCCC=CCOC(=O)N2CC[C@@](C(=O)N[C@@H](CC(=O)O)C(=O)N[C@@H](Cc3c[nH]c4ccccc34)C(=O)N[C@@H](CCC(N)=O)C(N)=O)(C2)NC(=O)[C@H](C(C)C)NC(=O)[C@H](Cc2ccccc2)NC(=O)[C@H](C)NC(=O)[C@H](C)NC(=O)[C@H](CC(=O)O)NC(=O)[C@H](CC(=O)O)NC1=O [I-121, Ac-Phe-Asp-Ala-R8-Asp-Asp-Ala-Ala-Phe-Val-PyrS-Asp-Trp-Gln-NH2] |
| 1.202 | CC(=O)NC(C)(C)C(=O)N[C@@H](CC(=O)O)C(=O)N[C@@H](C)C(=O)N[C@]1(C)CCCCCCC=CCOC(=O)N2CC[C@@](C(=O)N[C@@H](Cc3ccccc3)C(=O)N[C@@H](Cc3c[nH]c4ccccc34)C(=O)N[C@@H](CCC(N)=O)C(N)=O)(C2)NC(=O)[C@H](C(C)C)NC(=O)[C@H](Cc2ccccc2)NC(=O)[C@H](C)NC(=O)[C@H](C)NC(=O)[C@H](CCC(=O)O)NC(=O)[C@H](CC(=O)O)NC1=O [I-157, Ac-Aib-Asp-Ala-R8-Asp-Glu-Ala-Ala-Phe-Val-PyrS-Phe-Trp-Gln-NH2] |

Same assay, conditions: pH 7.4, CHI Log D

| Compound | chromatographic logD |
| --- | --- |
| CC(=O)N[C@@H](Cc1ccccc1)C(=O)N[C@@H](CC(=O)O)C(=O)N[C@@H](C)C(=O)N[C@]1(C)CCCCCCC=CCOC(=O)N2CC[C@@](C(=O)N[C@@H](Cc3ccccc3)C(=O)N[C@@H](Cc3c[nH]c4ccccc34)C(=O)N[C@@H](CCC(N)=O)C(N)=O)(C2)NC(=O)[C@H](C(C)C)NC(=O)[C@H](Cc2ccccc2)NC(=O)[C@H](C)NC(=O)[C@H](C)NC(=O)[C@H](Cc2cccc3ccccc23)NC(=O)[C@H](CC(=O)O)NC1=O [I-114, Ac-Phe-Asp-Ala-R8-Asp-1NapA-Ala-Ala-Phe-Val-PyrS-Phe-Trp-Gln-NH2] | 2.11 |
| CC(=O)N1CCC[C@]12CC=CCCCC1(CCCC=CCCCCCC[C@@](C)(C(=O)N[C@@H](Cc3ccccc3)C(=O)N[C@@H](Cc3c[nH]c4ccccc34)C(N)=O)NC(=O)[C@H](C(C)C)NC(=O)[C@H](Cc3ccccc3)NC(=O)[C@H](C)NC(=O)[C@H](C)NC(=O)[C@H](CCC(=O)O)NC(=O)[C@H](CC(=O)O)NC1=O)NC(=O)[C@H](C)NC(=O)[C@H](CC(=O)O)NC2=O (stereo partly drawn) [I-128, Ac-PL3-Asp-Ala-B5-Asp-Glu-Ala-Ala-Phe-Val-S8-Phe-Trp-NH2] | 2.22 |
| CC(=O)N1CCC[C@]12CC=CCCCC1(CCCC=CCCCCCC[C@@](C)(C(=O)N[C@@H](Cc3ccccc3)C(=O)NC(Cc3cccc4cc(F)ccc34)C(=O)N[C@@H](CCC(N)=O)C(N)=O)NC(=O)[C@H](C(C)C)NC(=O)[C@H](Cc3ccccc3)NC(=O)[C@H](C)NC(=O)[C@H](C)NC(=O)[C@H](CCC(=O)O)NC(=O)[C@H](CC(=O)O)NC1=O)NC(=O)[C@H](C)NC(=O)[C@H](CC(=O)O)NC2=O (stereo partly drawn) [I-142, Ac-PL3-Asp-Ala-B5-Asp-Glu-Ala-Ala-Phe-Val-S8-Phe-6F1NapA-Gln-NH2] | 2.18 |
| CC(=O)N1CCC[C@]12CC=CCCCC1(CCCC=CCCCCCC[C@@](C)(C(=O)N[C@@H](Cc3ccccc3)C(=O)N[C@@H](Cc3ccc(-c4ccccc4)cc3)C(=O)N[C@@H](CCC(N)=O)C(N)=O)NC(=O)[C@H](C(C)C)NC(=O)[C@H](Cc3ccccc3)NC(=O)[C@H](C)NC(=O)[C@H](C)NC(=O)[C@H](CCC(=O)O)NC(=O)[C@H](CC(=O)O)NC1=O)NC(=O)[C@H](C)NC(=O)[C@H](CC(=O)O)NC2=O (stereo partly drawn) [I-145, Ac-PL3-Asp-Ala-B5-Asp-Glu-Ala-Ala-Phe-Val-S8-Phe-Bip-Gln-NH2] | 2.28 |

The next lines start with the values.

| chromatographic logD | Compound |
| --- | --- |
| 1.24 | CC(=O)N[C@@H](Cc1ccccc1)C(=O)N[C@@H](CC(=O)O)C(=O)N[C@@H](C)C(=O)N[C@]1(C)CCCCCCC=CCOC(=O)N2CC[C@@](C(=O)N[C@@H](Cc3ccccc3)C(=O)N[C@@H](Cc3c[nH]c4ccccc34)C(=O)N[C@@H](CCC(N)=O)C(N)=O)(C2)NC(=O)[C@H](C(C)C)NC(=O)[C@H](Cc2ccccn2)NC(=O)[C@H](C)NC(=O)[C@H](C)NC(=O)[C@H](CC(=O)O)NC(=O)[C@H](CC(=O)O)NC1=O [I-86, Ac-Phe-Asp-Ala-R8-Asp-Asp-Ala-Ala-2PyrA-Val-PyrS-Phe-Trp-Gln-NH2] |
| 1 | CC(=O)N[C@@H](Cc1ccccc1)C(=O)N[C@@H](CC(=O)O)C(=O)N[C@@H](C)C(=O)N[C@]1(C)CCCCCCC=CCOC(=O)N2CC[C@@](C(=O)N[C@@H](Cc3cccc(C(N)=O)c3)C(=O)N[C@@H](Cc3c[nH]c4ccccc34)C(=O)N[C@@H](CCC(N)=O)C(N)=O)(C2)NC(=O)[C@H](C(C)C)NC(=O)[C@H](Cc2ccccc2)NC(=O)[C@H](C)NC(=O)[C@H](C)NC(=O)[C@H](CC(=O)O)NC(=O)[C@H](CC(=O)O)NC1=O [I-107, Ac-Phe-Asp-Ala-R8-Asp-Asp-Ala-Ala-Phe-Val-PyrS-3CBMF-Trp-Gln-NH2] |
